Results reported in patent US10800757B2, “Inhibitors of TRPC6” (Boehringer Ingelheim International GmbH, priority 2017, dated 2020).
pIC50: −log10 of the molar value.

Molecular target: TRPC6 (Homo sapiens (Human), UniProt Q9Y210)
Assay: High throughput screening assay: fluorescent calcium (Fluo4/AM) assay of TRPC6 channel activation by GSK1702934A in HEK293/TREx cells
Assay type: cell-based
Conditions: HEK293/TREx cells stably transfected with TRPC6; agonist GSK1702934A; 7 concentrations 20 μM to 0.027 μM, triplicate
Excerpt: This screening assay measures TRPC6 (transient receptor potential cation channel, subfamily C, member 6) ion channel activation via addition either of the commercially available DAG ligand analogue OAG (1-oleoyl-2-acetyl-sn-glycerol) or of the TRPC6 agonist 1-[1-(4,5,6,7,8-pentahydrocyclohepta[2,1-d]thiophen-2-ylcarbonyl)-4-piperidyl]-3-hydrobenzimidazol-2-one (GSK1702934A). The assay utilizes a FLIPR fluorescent calcium sensor 4-(6-Acetoxymethoxy-2,7-difluoro-3-oxo-9-xanthenyl)-4′-methyl-2,2′-(ethylenedioxy)dianiline-N,N,N′,N′-tetraacetic acid tetrakis(acetoxymethyl) ester (Fluo4/AM) […]. Changes (increases) in intracellular membrane calcium concentration potential as measured by the fluorescent signal increase during membrane depolarization provide a measurement of channel activity.
The commercially available HEK293/TREx line (Invitrogen) was stably transfected with a TRPC6 construct and screened by conventional calcium imaging to find clones with TRPC6 expression following stimulation with 1 μg/ml tetracycline. These cells were maintained in the growth medium recommended by the manufacturer supplemented with 100 μg/ml hygromycin to promote retention of the TRPC6 construct. After growing to near confluency, cells were plated at a density of ^˜35,000 cells/well in 384 well CellBind plates (Corning) in the presence of 1 μg/ml tetracycline, and allowed to grow for 20-30 hrs. A nearly confluent monolayer resulted. Growth media was removed from the wells and cells were then loaded with […] Fluo4/AM diluted in Ringer's Solution (6.5 g NaCl, 0.42 g KCl, 0.25 g CaCl2) and 0.2 g of sodium bicarbonate; pH 7.4) supplemented with 1% Pluronic F-127 to a final concentration of 0.5 μM and incubated for 60 min, at room temperature. Dye solution was then removed from the cells by inverting plates with a sharp flick, and replaced with 25 μl Ringer's. Following ^˜0.5 hour for recovery from loading, cells were assayed using the Hamamatsu FDSS 6000 system, which permitted illumination at 485 nm. Frames were acquired at a rate of 0.2 Hz. During the assay, the plates were continuously vortexed, with pipette mixing of wells following addition of each reagent. For the screening assay, 26 μl of a diluted compound stock (at 50 μM) was added to each well for 2 minutes following the collection of a short (4 frame) baseline. 13 μl of agonist solution consisting of 125 nM GSK1702934A diluted in high-Ca2+Ringer solution (containing 90 mm Ca2+) was then added to each well, achieving a final concentration of 20 mm Ca2+ and 10 μM test compound. Data was collected for ^˜3 minutes following addition of high Ca2+Ringer. The fluorescent ratio for each well was divided by the initial fluorescent intensity for that well and the overall response was determined by averaging the fluorescent ratio of the last 4 frames acquired during the experiment excepting the final frame. Negative and Positive controls were included on each plate. Negative controls wells consisted of HEK293/TREx TRPC6 cells exposed to assay buffer and agonist solution, but no test compound. Positive control consisted of wells consisted of HEK293/TREx TRPC6 cells exposed to 25 μM 3-[(2-chlorophenoxy)methyl]phenyl piperidyl ketone (Chembridge) diluted in Ringer's solution and agonist solution. These controls defined zero percent and 100 percent block respectively, and intensity of each well was normalized to these values.
Compounds were tested in triplicate at all concentrations. Standard software was used to fit IC50 curves.

Sequence of TRPC6 (Q9Y210 whole entry, species assumed): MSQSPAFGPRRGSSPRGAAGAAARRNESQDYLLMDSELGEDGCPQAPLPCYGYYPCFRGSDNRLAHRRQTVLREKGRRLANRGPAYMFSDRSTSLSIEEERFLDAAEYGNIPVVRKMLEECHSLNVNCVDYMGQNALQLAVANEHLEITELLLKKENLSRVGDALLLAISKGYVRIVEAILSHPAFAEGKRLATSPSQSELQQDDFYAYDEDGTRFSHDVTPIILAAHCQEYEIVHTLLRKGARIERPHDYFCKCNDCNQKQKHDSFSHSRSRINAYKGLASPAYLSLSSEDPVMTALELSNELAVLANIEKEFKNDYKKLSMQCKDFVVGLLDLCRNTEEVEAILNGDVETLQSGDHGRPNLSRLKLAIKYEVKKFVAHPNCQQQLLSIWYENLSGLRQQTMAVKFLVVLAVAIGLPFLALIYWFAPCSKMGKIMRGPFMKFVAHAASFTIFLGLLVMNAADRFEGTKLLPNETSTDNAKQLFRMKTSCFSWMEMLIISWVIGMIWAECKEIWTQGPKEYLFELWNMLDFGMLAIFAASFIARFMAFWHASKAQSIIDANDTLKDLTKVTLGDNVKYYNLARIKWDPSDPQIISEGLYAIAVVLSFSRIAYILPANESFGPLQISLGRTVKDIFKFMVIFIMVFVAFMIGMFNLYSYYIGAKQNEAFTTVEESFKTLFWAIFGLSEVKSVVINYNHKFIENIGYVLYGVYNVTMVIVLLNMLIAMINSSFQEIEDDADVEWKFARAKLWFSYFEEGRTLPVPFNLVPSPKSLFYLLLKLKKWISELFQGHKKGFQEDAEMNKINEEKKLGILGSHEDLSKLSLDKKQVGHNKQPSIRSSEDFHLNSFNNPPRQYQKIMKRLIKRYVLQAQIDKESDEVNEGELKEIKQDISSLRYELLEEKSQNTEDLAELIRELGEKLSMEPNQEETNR

pIC50	Compound
7.33	COc1cc(N)ncc1N1CCN(C(=O)c2ccc(Oc3ccccc3)cn2)[C@@H]([C@@H](C)O)C1 [Compound 50, (1R)-1-[(2R)-4-(6-amino-4-methoxypyridin-3-yl)-1-(5-phenoxypyridine-2-carbonyl)piperazin-2-yl]ethan-1-ol]
6.72	COc1cc(C(=O)N2CCC(c3cnc(N)cc3OC)CC2)ncc1OCCc1ccccc1 [Compound 52, (6-Amino-4-methoxy-3′,4′,5′,6′-tetrahydro-2′H-[3,4′]bipyridinyl-1′-yl)-(4-methoxy-5-phenethyloxy-pyridin-2-yl)-methanone]
6.68	COc1cc(C(=O)N2CCC(c3cnc(N)cc3OC)CC2)ncc1OCC1CCC1 [Compound 53, (6-Amino-4-methoxy-3′,4′,5′,6′-tetrahydro-2′H-[3,4′]bipyridinyl-1′-yl)-(5-cyclobutylmethoxy-4-methoxy-pyridin-2-yl)-methanone]
6.66	COc1cc(C(=O)N2CCC(c3ccc(N)nn3)CC2)ncc1Oc1ccc(OC(F)F)cc1 [Compound 54, [4-(6-Amino-pyridazin-3-yl)-piperidin-1-yl]-[5-(4-difluoromethoxy-phenoxy)-4-methoxy-pyridin-2-yl]-methanone]
6.66	COC[C@H]1CN(c2cnc(N)cc2OC)CCN1C(=O)c1cc(OC)c(Oc2ccc(F)cc2)cn1 [Compound 55, [(R)-4-(6-Amino-4-methoxy-pyridin-3-yl)-2-methoxymethyl-piperazin-1-yl]-[5-(4-fluoro-phenoxy)-4-methoxy-pyridin-2-yl]-methanone]
6.54	COc1cc(C(=O)N2CCC(c3nnc(N)cc3OC)CC2)ncc1Oc1ccc(C(F)(F)F)cc1 [Compound 56, [4-(6-Amino-4-methoxy-pyridazin-3-yl)-piperidin-1-yl]-[4-methoxy-5-(4-trifluoromethyl-phenoxy)-pyridin-2-yl]-methanone]
6.52	COc1cc(C(=O)N2CCC(c3ccc(N)nn3)CC2)ncc1OCc1ccccc1F [Compound 57, [4-(6-Amino-pyridazin-3-yl)-piperidin-1-yl]-[5-(2-fluoro-benzyloxy)-4-methoxy-pyridin-2-yl]-methanone]
7.00	COc1cc(N)ncc1N1CCN(C(=O)c2ccc(Oc3ccccc3)cn2)[C@@H]([C@H](C)O)C1 [Compound 58, (1S)-1-[(2R)-4-(6-amino-4-methoxypyridin-3-yl)-1-(5-phenoxypyridine-2-carbonyl)piperazin-2-yl]ethan-1-ol]
6.47	COc1cc(C(=O)N2CCC(c3cnc(N)cc3OC)CC2)ncc1OCC(C)(C)C [Compound 59, (6-Amino-4-methoxy-3′,4′,5′,6′-tetrahydro-2′H-[3,4′]bipyridinyl-1′-yl)-[5-(2,2-dimethyl-propoxy)-4-methoxy-pyridin-2-yl]-methanone]
6.36	COc1ccc(Oc2cnc(C(=O)N3CCC(c4cc(OC)c(N)nn4)CC3)cc2OC)cc1 [Compound 60, [4-(6-Amino-5-methoxy-pyridazin-3-yl)-piperidin-1-yl]-[4-methoxy-5-(4-methoxy-phenoxy)-pyridin-2-yl]-methanone]
6.30	COc1cc(C(=O)N2CCN(c3cnc(N)cc3OC)CC2)ncc1OCC1CC1 [Compound 61, [4-(6-Amino-4-methoxy-pyridin-3-yl)-piperazin-1-yl]-(5-cyclopropylmethoxy-4-methoxy-pyridin-2-yl)-methanone]
6.26	COc1cc(C(=O)N2CCC(c3ccc(N)nn3)CC2)ncc1OC1CCCCC1 [Compound 62, [4-(6-Amino-pyridazin-3-yl)-piperidin-1-yl]-(5-cyclohexyloxy-4-methoxy-pyridin-2-yl)-methanone]
6.17	COc1cc(C(=O)N2CCN(c3cnc(N)cc3OC)C[C@H]2CO)ncc1Oc1ccc(F)cc1 [Compound 63, [(S)-4-(6-Amino-4-methoxy-pyridin-3-yl)-2-hydroxymethyl-piperazin-1-yl]-[5-(4-fluoro-phenoxy)-4-methoxy-pyridin-2-yl]-methanone]
6.09	COc1cc(C(=O)N2CCC(c3cnc(N)cc3OC)CC2)ncc1OCC1(CF)CC1 [Compound 64, (6-Amino-4-methoxy-3′,4′,5′,6′-tetrahydro-2′H-[3,4′]bipyridinyl-1′-yl)-[5-(1-fluoromethyl-cyclopropylmethoxy)-4-methoxy-pyridin-2-yl]-methanone]
6.08	CCOc1cnc(C(=O)N2CCC(c3cnc(N)cc3OC)CC2)cc1OC [Compound 65, (6-Amino-4-methoxy-3′,4′,5′,6′-tetrahydro-2′H-[3,4′]bipyridinyl-1′-yl)-(5-ethoxy-4-methoxy-pyridin-2-yl)-methanone]
6.08	COc1ccc(Oc2cnc(C(=O)N3CCC(c4nnc(N)cc4OC)CC3)cc2OC)cc1 [Compound 66, [4-(6-Amino-4-methoxy-pyridazin-3-yl)-piperidin-1-yl]-[4-methoxy-5-(4-methoxy-phenoxy)-pyridin-2-yl]-methanone]
6.25	COc1cc(C(=O)N2CCC(c3ccc(N)nn3)CC2)ncc1OCCC1CC1 [Compound 67, [4-(6-Amino-pyridazin-3-yl)-piperidin-1-yl]-[5-(2-cyclopropyl-ethoxy)-4-methoxy-pyridin-2-yl]-methanone]
6.20	COc1cc(C(=O)N2CCN(c3cnc(N)cc3OC)C[C@@H]2CO)ncc1Oc1ccccc1 [Compound 69, [(R)-4-(6-Amino-4-methoxy-pyridin-3-yl)-2-hydroxymethyl-piperazin-1-yl]-(4-methoxy-5-phenoxy-pyridin-2-yl)-methanone]
6.19	COc1cc(C(=O)N2CCC(c3cnc(N)cc3OC)CC2)ncc1O[C@@H](C)C1CC1 [Compound 70, (6-Amino-4-methoxy-3′,4′,5′,6′-tetrahydro-2′H-[3,4′]bipyridinyl-1′-yl)-[5-((S)-1-cyclopropyl-ethoxy)-4-methoxy-pyridin-2-yl]-methanone]
6.07	COc1cc(C(=O)N2CCN(c3cnc(N)cc3OC)C[C@H]2CO)ncc1Oc1ccccc1 [Compound 71, [(S)-4-(6-Amino-4-methoxy-pyridin-3-yl)-2-hydroxymethyl-piperazin-1-yl]-(4-methoxy-5-phenoxy-pyridin-2-yl)-methanone]
6.04	COc1cc(C(=O)N2CCC(c3cnc(N)cc3OC)CC2)ncc1OC(C)C [Compound 72, (6-Amino-4-methoxy-3′,4′,5′,6′-tetrahydro-2′H-[3,4′]bipyridinyl-1′-yl)-(5-isopropoxy-4-methoxy-pyridin-2-yl)-methanone]
5.89	COc1cc(C(=O)N2CCC(c3ccc(N)nn3)CC2)ncc1OCCc1ccccc1 [Compound 73, [4-(6-Amino-pyridazin-3-yl)-piperidin-1-yl]-(4-methoxy-5-phenethyloxy-pyridin-2-yl)-methanone]

Compound	pIC50
COc1cc(C(=O)N2C3CCC2CN(c2cnc(N)cc2OC)C3)ncc1Oc1ccccc1 [Compound 51, [3-(6-Amino-4-methoxy-pyridin-3-yl)-3,8-diaza-bicyclo[3.2.1]oct-8-yl]-(4-methoxy-5-phenoxy-pyridin-2-yl)-methanone]	6.54
COc1cc(C(=O)N2C3COCC2CC(c2cnc(N)cc2OC)C3)ncc1Oc1ccccc1 (stereo not drawn) [Compound 68, [7-(6-Amino-4-methoxy-pyridin-3-yl)-3-oxa-9-aza-bicyclo[3.3.1]non-9-yl]-(4-methoxy-5-phenoxy-pyridin-2-yl)-methanone]	6.20
